From PMC9317316, “Synthesis and Evaluation of Some New 4H-Pyran Derivatives as Antioxidant, Antibacterial and Anti-HCT-116 Cells of CRC, with Molecular Docking, Antiproliferative, Apoptotic and ADME Investigations” (Pharmaceuticals, 2022)

What was measured:
[1] = tested on: CDK2 gene in HCT-116 cells; test: qRT-PCR expression profile of the CDK2 gene in HCT-116 cells; format: cell-based, human; details: 24 h, relative to untreated cells (given as decreased x-fold)
Protocol: Second, the expression profiles of the CDK2 gene in HCT-116 cells treated with compounds 4d and 4k were determined. The results were compared with the positive control (cells treated with the well-known cytotoxic drug 5-fluorouracil) and the negative control (untreated cells).
Primers specific for the cyclin-dependent kinase-2 (CDK2) and caspase-3 genes were designed using primer blast (https://www.ncbi.nlm.nih.gov/tools/primer-blast/, accessed on 31 October 2021) or primer3 (https://primer3.ut.ee/, accessed on 31 October 2021) software. The selected genes covered the two main groups of the cyclin-dependent kinase-2 (CDK2) gene and the caspase-3 gene. Primers were used in RT-qPCR analysis to amplify fragments of 100–200 bp in length (Table 7).
Total RNA was extracted from each cell culture flask using the RNeasy extraction kit (RNeasy micro kit, cat. no. 74004). Up to 1 × 10^6 cells, depending on the cell line, were disrupted in buffer RLT and homogenized and disrupted. Ethanol was then added to the lysate, creating conditions that promote the selective binding of RNA to the RNeasy membrane. […] The amount of extracted RNA was quantified by estimating the absorbance at 260 nm. The purity of the RNA was checked by measuring the ratio of the absorbance at 260 and 280 nm, where a ratio ranging from 1.8 to 2.0 was taken to be pure. […]
(§1) Quantitative real-time PCR was carried out with the Thermal Cycler Rotorgene Real-Time System II (Rotorgene, South Korea) with the SYBR kit. […]
The relative expression levels through the average cycle threshold (CT) were successfully detected. Average CT values were calculated from the triplicate experiment conducted for each gene; the CT value was detected by subtracting the average CT value of genes from the CT value of actin and GAPDH genes. The relative expression levels of the target genes were calculated using the ΔΔ Ct method and the reference genes GAPDH for the cancer cell line. Finally, a fold change equation […] was used to estimate relative expression levels, while the standard deviation was calculated from the replicated experimental data.

[2] = tested on: caspase-3 gene in HCT-116 cells; test: qRT-PCR expression profile of the caspase-3 gene in HCT-116 cells; format: cell-based, human; design: dose or concentration left out as unconfirmed; details: 24 h, as compared to the negative control
From the text: Normally, apoptosis, or programmed cell death, is considered as a safeguard mechanism for managing stress and maintaining tissue homeostasis. It proceeds through a series of well-ordered biochemical cascades of events, which are regulated by a network of proteins. However, due to genetic and epigenetic mutations, deregulation of these proteins occurs, which results in evasion of apoptosis. This oncogenic transformation is a hallmark of human cancer, and it contributes to other tumorigenic events, including uncontrolled growth, accumulation of further genetic mutations, tumor angiogenesis and metastasis and chemotherapeutic resistance. Therefore, reinitiating selective cancer cell death is a fundamental goal in anticancer drug development. Research in cancer biology has provided fundamental insights into the apoptotic pathways and their deregulation in colon cancer. Moreover, it has identified the molecular targets for reinitiating selective tumor cell death, including antiapoptotic Bcl-2 family proteins, apoptosis inhibitors and activators of the TRAIL death receptor signaling pathway, as well as other apoptotic markers, such as caspases. Among the caspases, which play critical roles in apoptosis, are the initiators, including caspases-8 or 9, and the effectors, including caspase-3 and caspase-7. […] Thus, the real-time quantitative PCR analyses of caspase-3-gene levels following treatment with compounds 4d and 4K at a concentration […] for 24 h, were performed to investigate their potential as proapoptotic agents. […]
Total RNA was extracted from each cell culture flask using the RNeasy extraction kit (RNeasy micro kit, cat. no. 74004). […] The amount of extracted RNA was quantified by estimating the absorbance at 260 nm. The purity of the RNA was checked by measuring the ratio of the absorbance at 260 and 280 nm, where a ratio ranging from 1.8 to 2.0 was taken to be pure. […]
as §1

## O=c1[nH]cc(F)c(=O)[nH]1 [5-FU, 5-fluorouracil, reference compound]
[1]
  CDK2 transcript level, fold: 0.29 fold
[2]
  caspase-3 gene transcription level, fold increase: 7.31 fold
